The record followed here is ChEMBL document CHEMBL1139150, “Design of antimicrobial compounds based on peptide structures” (Bioorg Med Chem Lett, 2007).

≈ marks a conversion by molar mass, not a printed value. Peptide text beside a SMILES is read from it. Some results are limits rather than exact numbers.

A short description of data set [1]: Induction of erythrocyte lysis at 100 uM. Format: cell-based. Particulars: human, erythrocytes; read-out: Activity.
The next data set concerns Bacillus subtilis. Briefly: Antibacterial activity against Bacillus subtilis. Type of data set: functional.
The subject of another data set is Escherichia coli. Briefly: Antibacterial activity against Escherichia coli. Type of data set: functional.

By MIC is commonly meant the least concentration at which growth counts as inhibited. Low values mean greater potency, high ones weaker potency.

Regarding `N=C(N)NCCCCCNC(=O)[C@H](Cc1c[nH]c2ccccc12)NC(=O)c1cc(C(=O)N[C@@H](Cc2c[nH]c3ccccc23)C(=O)NCCCCCNC(=N)N)cc(C(=O)N[C@@H](Cc2c[nH]c3ccccc23)C(=O)NCCCCCNC(=N)N)c1`, the hemolysis at 100 µM in data set [1] turned out to be 22.6%. Moreover, the figures for the MIC in the data set on Bacillus subtilis and in the data set on Escherichia coli were 2 µM (≈ 2.29 µg/mL) and 15.6 µM (≈ 17.9 µg/mL), respectively.

For the molecule `NCCCCCNC(=O)[C@@H](N)Cc1c[nH]c2ccccc12`, in data set [1], the hemolysis at 100 µM is less than 1%. For the same molecule, the MIC against Bacillus subtilis and against Escherichia coli was greater than 250 µM in each case.

Regarding `NCCNC(=O)[C@@H](N)Cc1c[nH]c2ccccc12`, the hemolysis at 100 µM in data set [1] was less than 1%. The MIC against Bacillus subtilis and against Escherichia coli was greater than 250 µM each time.

On to `N=C(N)NCCNC(=O)[C@H](Cc1c[nH]c2ccccc12)NC(=O)c1cc(C(=O)N[C@@H](Cc2c[nH]c3ccccc23)C(=O)NCCNC(=N)N)cc(C(=O)N[C@@H](Cc2c[nH]c3ccccc23)C(=O)NCCNC(=N)N)c1`, for which the hemolysis at 100 µM in data set [1] turned out to be 5.1%. Moreover, the MIC with Bacillus subtilis is 3.9 µM (≈ 3.98 µg/mL); against Escherichia coli it was greater than 125 µM.

`NCCCCCNC(=O)[C@H](Cc1c[nH]c2ccccc12)NC(=O)c1cc(C(=O)N[C@@H](Cc2c[nH]c3ccccc23)C(=O)NCCCCCN)cc(C(=O)N[C@@H](Cc2c[nH]c3ccccc23)C(=O)NCCCCCN)c1`: the hemolysis at 100 µM in data set [1] came out at 0.4%. In addition, the figures for the MIC with Bacillus subtilis and against Escherichia coli were 31.3 µM (≈ 32 µg/mL) and 62.5 µM (≈ 63.8 µg/mL), respectively.

As for `NCCNC(=O)[C@H](Cc1c[nH]c2ccccc12)NC(=O)c1cc(C(=O)N[C@@H](Cc2c[nH]c3ccccc23)C(=O)NCCN)cc(C(=O)N[C@@H](Cc2c[nH]c3ccccc23)C(=O)NCCN)c1`, the hemolysis at 100 µM in data set [1] is 1.2%. Further, the MIC is 31.3 µM (≈ 28 µg/mL) in the data set on Bacillus subtilis and greater than 125 µM against Escherichia coli.

Consider `O=C(O)c1cc(C(=O)O)cc(C(=O)O)c1`, for which the hemolysis at 100 µM in data set [1] was less than 1%. In addition, the minimum inhibitory concentration (MIC) in the data set on Bacillus subtilis and in the data set with Escherichia coli was greater than 250 µM each time.

`NCCCC[C@@H]1NC(=O)[C@H](CCCCN)NC(=O)[C@H](Cc2ccccc2)NC(=O)[C@H](CCCCN)NC(=O)[C@H](Cc2c[nH]c3ccccc23)NC(=O)[C@H](Cc2c[nH]c3ccccc23)NC1=O` (cyclo(FKKWWK)): in data set [1], the hemolysis at 100 µM turned out to be 10%. Moreover, the MIC in the data set with Bacillus subtilis and against Escherichia coli was 25 µM (≈ 22.6 µg/mL) throughout.

Consider `N=C(N)NCCC[C@@H]1NC(=O)[C@H](CCCNC(=N)N)NC(=O)[C@H](Cc2ccccc2)NC(=O)[C@H](CCCNC(=N)N)NC(=O)[C@H](Cc2c[nH]c3ccccc23)NC(=O)[C@H](Cc2c[nH]c3ccccc23)NC1=O` (cyclo(RRWWRF)), for which the hemolysis at 100 µM in data set [1] is 24%. Also, the MIC in the data set with Bacillus subtilis is 3.1 µM (≈ 3.06 µg/mL); in the data set on Escherichia coli it was 6.3 µM (≈ 6.23 µg/mL).
